Data: the OligoGym collection
Several values for one entry are separate records, joined by “and”; a condition that tells them apart may be missing. Identical values can stand only once. HELM strings list units from the 5' end as sugar, base in round brackets, then linkage (d deoxyribose, r ribose, m 2'-O-methyl, p phosphodiester). Strings are as the collection lists them, not checked against the first reports. ss, as = sense and antisense strand; [una] = unlocked nucleic acid; [fl2r] = 2'-fluoro

Details: siRNA
Further: test system not given here.

Substance	target mRNA knockdown
RNA1{r(G)p.r(U)p.r(A)p.r(U)p.r(G)p.r(A)p.r(C)p.r(C)p.r(G)p.r(A)p.r(C)p.r(U)p.r(A)p.r(C)p.r(G)p.r(C)p.r(G)p.r(U)p.r(A)p.r(T)p.r(T)}|RNA2{r(U)p.r(U)p.r(C)p.r(A)p.r(G)p.r(U)p.r(G)p.r(U)p.[una](G)p.r(A)p.r(U)p.r(G)p.r(A)p.r(C)p.r(A)p.r(C)p.r(U)p.r(U)p.r(G)p.r(T)p.r(T)}$$$RNA1{StrandType:ss}|RNA2{StrandType:as}$	89%
RNA1{r(G)p.r(U)p.r(A)p.r(U)p.r(G)p.r(A)p.r(C)p.r(C)p.r(G)p.r(A)p.r(C)p.r(U)p.r(A)p.r(C)p.r(G)p.r(C)p.r(G)p.r(U)p.r(A)p.r(T)p.r(T)}|RNA2{r(U)p.r(U)p.r(C)p.r(A)p.r(G)p.r(U)p.r(G)p.r(U)p.r(G)p.[una](A)p.r(U)p.r(G)p.r(A)p.r(C)p.r(A)p.r(C)p.r(U)p.r(U)p.r(G)p.r(T)p.r(T)}$$$RNA1{StrandType:ss}|RNA2{StrandType:as}$	23%
RNA1{r(G)p.r(U)p.r(A)p.r(U)p.r(G)p.r(A)p.r(C)p.r(C)p.r(G)p.r(A)p.r(C)p.r(U)p.r(A)p.r(C)p.r(G)p.r(C)p.r(G)p.r(U)p.r(A)p.r(T)p.r(T)}|RNA2{r(U)p.r(U)p.r(C)p.r(A)p.r(G)p.r(U)p.r(G)p.r(U)p.r(G)p.r(A)p.[una](U)p.r(G)p.r(A)p.r(C)p.r(A)p.r(C)p.r(U)p.r(U)p.r(G)p.r(T)p.r(T)}$$$RNA1{StrandType:ss}|RNA2{StrandType:as}$	0%
RNA1{r(G)p.r(U)p.r(A)p.r(U)p.r(G)p.r(A)p.r(C)p.r(C)p.r(G)p.r(A)p.r(C)p.r(U)p.r(A)p.r(C)p.r(G)p.r(C)p.r(G)p.r(U)p.r(A)p.r(T)p.r(T)}|RNA2{r(U)p.r(U)p.r(C)p.r(A)p.r(G)p.r(U)p.r(G)p.r(U)p.r(G)p.r(A)p.r(U)p.[una](G)p.r(A)p.r(C)p.r(A)p.r(C)p.r(U)p.r(U)p.r(G)p.r(T)p.r(T)}$$$RNA1{StrandType:ss}|RNA2{StrandType:as}$	59%
RNA1{r(G)p.r(U)p.r(A)p.r(U)p.r(G)p.r(A)p.r(C)p.r(C)p.r(G)p.r(A)p.r(C)p.r(U)p.r(A)p.r(C)p.r(G)p.r(C)p.r(G)p.r(U)p.r(A)p.r(T)p.r(T)}|RNA2{r(U)p.r(U)p.r(C)p.r(A)p.r(G)p.r(U)p.r(G)p.r(U)p.r(G)p.r(A)p.r(U)p.r(G)p.[una](A)p.r(C)p.r(A)p.r(C)p.r(U)p.r(U)p.r(G)p.r(T)p.r(T)}$$$RNA1{StrandType:ss}|RNA2{StrandType:as}$	74%
RNA1{r(G)p.r(U)p.r(A)p.r(U)p.r(G)p.r(A)p.r(C)p.r(C)p.r(G)p.r(A)p.r(C)p.r(U)p.r(A)p.r(C)p.r(G)p.r(C)p.r(G)p.r(U)p.r(A)p.r(T)p.r(T)}|RNA2{r(U)p.r(U)p.r(C)p.r(A)p.r(G)p.r(U)p.r(G)p.r(U)p.r(G)p.r(A)p.r(U)p.r(G)p.r(A)p.[una](C)p.r(A)p.r(C)p.r(U)p.r(U)p.r(G)p.r(T)p.r(T)}$$$RNA1{StrandType:ss}|RNA2{StrandType:as}$	64%
RNA1{r(G)p.r(U)p.r(A)p.r(U)p.r(G)p.r(A)p.r(C)p.r(C)p.r(G)p.r(A)p.r(C)p.r(U)p.r(A)p.r(C)p.r(G)p.r(C)p.r(G)p.r(U)p.r(A)p.r(T)p.r(T)}|RNA2{r(U)p.r(U)p.r(C)p.r(A)p.r(G)p.r(U)p.r(G)p.r(U)p.r(G)p.r(A)p.r(U)p.r(G)p.r(A)p.r(C)p.[una](A)p.r(C)p.r(U)p.r(U)p.r(G)p.r(T)p.r(T)}$$$RNA1{StrandType:ss}|RNA2{StrandType:as}$	86%
RNA1{r(G)p.r(U)p.r(A)p.r(U)p.r(G)p.r(A)p.r(C)p.r(C)p.r(G)p.r(A)p.r(C)p.r(U)p.r(A)p.r(C)p.r(G)p.r(C)p.r(G)p.r(U)p.r(A)p.r(T)p.r(T)}|RNA2{r(U)p.r(U)p.r(C)p.r(A)p.r(G)p.r(U)p.r(G)p.r(U)p.r(G)p.r(A)p.r(U)p.r(G)p.r(A)p.r(C)p.r(A)p.[una](C)p.r(U)p.r(U)p.r(G)p.r(T)p.r(T)}$$$RNA1{StrandType:ss}|RNA2{StrandType:as}$	29%
RNA1{r(G)p.r(U)p.r(A)p.r(U)p.r(G)p.r(A)p.r(C)p.r(C)p.r(G)p.r(A)p.r(C)p.r(U)p.r(A)p.r(C)p.r(G)p.r(C)p.r(G)p.r(U)p.r(A)p.r(T)p.r(T)}|RNA2{r(U)p.r(U)p.r(C)p.r(A)p.r(G)p.r(U)p.r(G)p.r(U)p.r(G)p.r(A)p.r(U)p.r(G)p.r(A)p.r(C)p.r(A)p.r(C)p.[una](U)p.r(U)p.r(G)p.r(T)p.r(T)}$$$RNA1{StrandType:ss}|RNA2{StrandType:as}$	87%
RNA1{r(G)p.r(U)p.r(A)p.r(U)p.r(G)p.r(A)p.r(C)p.r(C)p.r(G)p.r(A)p.r(C)p.r(U)p.r(A)p.r(C)p.r(G)p.r(C)p.r(G)p.r(U)p.r(A)p.r(T)p.r(T)}|RNA2{r(U)p.r(U)p.r(C)p.r(A)p.r(G)p.r(U)p.r(G)p.r(U)p.r(G)p.r(A)p.r(U)p.r(G)p.r(A)p.r(C)p.r(A)p.r(C)p.r(U)p.[una](U)p.r(G)p.r(T)p.r(T)}$$$RNA1{StrandType:ss}|RNA2{StrandType:as}$	91%
RNA1{r(G)p.r(U)p.r(A)p.r(U)p.r(G)p.r(A)p.r(C)p.r(C)p.r(G)p.r(A)p.r(C)p.r(U)p.r(A)p.r(C)p.r(G)p.r(C)p.r(G)p.r(U)p.r(A)p.r(T)p.r(T)}|RNA2{r(U)p.r(U)p.r(C)p.r(A)p.r(G)p.r(U)p.r(G)p.r(U)p.r(G)p.r(A)p.r(U)p.r(G)p.r(A)p.r(C)p.r(A)p.r(C)p.r(U)p.r(U)p.[una](G)p.r(T)p.r(T)}$$$RNA1{StrandType:ss}|RNA2{StrandType:as}$	82%
RNA1{r(G)p.r(U)p.r(A)p.r(U)p.r(G)p.r(A)p.r(C)p.r(C)p.r(G)p.r(A)p.r(C)p.r(U)p.r(A)p.r(C)p.r(G)p.r(C)p.r(G)p.r(U)p.r(A)p.r(T)p.r(T)}|RNA2{r(U)p.r(U)p.r(C)p.r(A)p.r(G)p.r(U)p.r(G)p.r(U)p.r(G)p.r(A)p.r(U)p.r(G)p.r(A)p.r(C)p.r(A)p.r(C)p.r(U)p.r(U)p.r(G)p.[una](T)p.[una](T)}$$$RNA1{StrandType:ss}|RNA2{StrandType:as}$	81%
RNA1{r(G)p.r(U)p.r(A)p.r(U)p.r(U)p.r(G)p.r(A)p.r(C)p.r(A)p.r(G)p.r(C)p.r(U)p.r(A)p.r(U)p.r(U)p.r(C)p.r(G)p.r(A)p.r(A)p.d(T)p.d(T)}|RNA2{r(U)p.r(U)p.r(C)p.r(G)p.r(A)p.r(A)p.r(U)p.r(A)p.r(G)p.r(C)p.r(U)p.r(G)p.r(U)p.r(C)p.r(A)p.r(A)p.r(U)p.r(A)p.r(C)p.d(T)p.d(T)}$$$RNA1{StrandType:ss}|RNA2{StrandType:as}$	73%
RNA1{r(G)p.r(U)p.r(C)p.m(U)p.r(A)p.m(U)p.r(G)p.r(C)p.m(C)p.r(A)p.r(A)p.r(G)p.r(A)p.r(A)p.r(G)p.r(G)p.r(G)p.r(A)p.r(G)p.r(T)p.r(T)}|RNA2{r(C)p.r(U)p.r(C)p.r(C)p.r(C)p.r(U)p.r(U)p.r(C)p.r(U)p.m(U)p.r(G)p.r(G)p.m(C)p.r(A)p.m(U)p.r(A)p.r(G)p.r(A)p.r(C)p.r(T)p.r(T)}$$$RNA1{StrandType:ss}|RNA2{StrandType:as}$	72%
RNA1{r(G)p.r(U)p.r(C)p.m(U)p.r(A)p.r(U)p.r(G)p.r(C)p.r(C)p.r(A)p.r(A)p.r(G)p.r(A)p.r(A)p.r(G)p.r(G)p.r(G)p.r(A)p.r(G)p.r(T)p.r(T)}|RNA2{r(C)p.r(U)p.r(C)p.r(C)p.r(C)p.r(U)p.r(U)p.r(C)p.r(U)p.r(U)p.r(G)p.r(G)p.r(C)p.r(A)p.m(U)p.r(A)p.r(G)p.r(A)p.r(C)p.r(T)p.r(T)}$$$RNA1{StrandType:ss}|RNA2{StrandType:as}$	76%
RNA1{r(G)p.r(U)p.r(G)p.r(A)p.r(A)p.r(G)p.r(U)p.r(C)p.r(A)p.r(A)p.r(C)p.r(A)p.r(U)p.r(G)p.r(C)p.r(C)p.r(U)p.r(G)p.r(C)p.d(T)p.d(T)}|RNA2{r(G)p.r(C)p.r(A)p.r(G)p.r(G)p.r(C)p.r(A)p.r(U)p.r(G)p.r(U)p.r(U)p.r(G)p.r(A)p.r(C)p.r(U)p.r(U)p.r(C)p.r(A)p.r(C)p.d(T)p.d(T)}$$$RNA1{StrandType:ss}|RNA2{StrandType:as}$	50% and 70%
RNA1{r(G)p.r(U)p.r(U)p.[fl2r](C)p.r(A)p.r(C)p.r(G)p.r(U)p.r(C)p.r(C)p.[fl2r](U)p.r(A)p.r(C)p.r(C)p.r(C)p.r(C)p.r(U)p.r(U)p.r(U)p.r(T)p.r(T)}|RNA2{r(A)p.r(A)p.r(A)p.r(G)p.r(G)p.r(G)p.r(G)p.[fl2r](U)p.r(A)p.r(G)p.r(G)p.r(A)p.r(C)p.r(G)p.[fl2r](U)p.r(G)p.r(A)p.r(A)p.r(C)p.r(T)p.r(T)}$$$RNA1{StrandType:ss}|RNA2{StrandType:as}$	65%
RNA1{r(G)p.r(U)p.r(U)p.r(C)p.r(A)p.r(C)p.r(G)p.r(U)p.r(C)p.r(C)p.r(U)p.r(A)p.r(C)p.r(C)p.r(C)p.r(C)p.r(U)p.r(U)p.r(U)p.r(T)p.r(T)}|RNA2{r(A)p.r(A)p.r(A)p.r(G)p.r(G)p.r(G)p.r(G)p.[fl2r](U)p.r(A)p.r(G)p.r(G)p.r(A)p.r(C)p.r(G)p.r(U)p.r(G)p.r(A)p.r(A)p.r(C)p.r(T)p.r(T)}$$$RNA1{StrandType:ss}|RNA2{StrandType:as}$	69%
RNA1{r(U)p.[fl2r](U)p.r(A)p.r(C)p.r(C)p.r(C)p.r(C)p.r(G)p.r(A)p.r(U)p.r(U)p.[fl2r](C)p.r(A)p.r(G)p.r(C)p.r(C)p.r(U)p.r(C)p.r(U)p.r(T)p.r(T)}|RNA2{r(A)p.r(G)p.r(A)p.r(G)p.r(G)p.r(C)p.[fl2r](U)p.r(G)p.r(A)p.r(A)p.r(U)p.r(C)p.r(G)p.r(G)p.r(G)p.r(G)p.[fl2r](U)p.r(A)p.r(A)p.r(T)p.r(T)}$$$RNA1{StrandType:ss}|RNA2{StrandType:as}$	82%
RNA1{r(U)p.[fl2r](U)p.r(A)p.r(C)p.r(C)p.r(C)p.r(C)p.r(G)p.r(A)p.r(U)p.r(U)p.r(C)p.r(A)p.r(G)p.r(C)p.r(C)p.r(U)p.r(C)p.r(U)p.r(T)p.r(T)}|RNA2{r(A)p.r(G)p.r(A)p.r(G)p.r(G)p.r(C)p.r(U)p.r(G)p.r(A)p.r(A)p.r(U)p.r(C)p.r(G)p.r(G)p.r(G)p.r(G)p.r(U)p.[fl2r](A)p.r(A)p.r(T)p.r(T)}$$$RNA1{StrandType:ss}|RNA2{StrandType:as}$	69%
